The target in this assay is T1, VcIIPK (Vibrio cholerae, UniProt Q9KQJ0).
T1 construct: gene VC_2008
The assay is described as follows: biochemical.

SMILES strings stand for the structures.

T1 sequence (Q9KQJ0 1-481 limits assumed): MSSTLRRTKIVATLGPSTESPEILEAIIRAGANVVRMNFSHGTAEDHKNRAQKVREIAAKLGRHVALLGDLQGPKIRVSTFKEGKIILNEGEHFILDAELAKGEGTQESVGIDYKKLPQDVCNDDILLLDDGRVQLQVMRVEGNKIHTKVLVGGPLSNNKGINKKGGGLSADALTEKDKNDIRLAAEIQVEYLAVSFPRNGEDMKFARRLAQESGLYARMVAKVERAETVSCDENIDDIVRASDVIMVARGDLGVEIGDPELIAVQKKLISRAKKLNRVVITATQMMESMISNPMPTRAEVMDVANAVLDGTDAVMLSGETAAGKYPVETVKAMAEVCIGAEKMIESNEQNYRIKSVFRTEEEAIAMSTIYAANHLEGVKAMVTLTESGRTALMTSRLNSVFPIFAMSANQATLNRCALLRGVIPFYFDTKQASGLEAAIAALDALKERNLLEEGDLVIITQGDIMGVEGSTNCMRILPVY

As to `O=C(O)C(=O)O` [oxalate], the affinity, expressed as Ki, was 71 ± 6 µM.

Broadly, the Ki is a dissociation constant, usually derived from enzyme kinetics or from competition with a known ligand.

(Values after PMC5501398 (PLoS ONE, 2017).)
